≈ marks a conversion by molar mass, not a printed value.
How the values were obtained:
[1] = test system: H9 (acute lymphoblastic leukemia, ALL); assay: MTT growth inhibition of leukemia cells, 72 h; format: cell-based, human; conditions: Homo sapiens, MTT
Excerpt: (§1) Leukemia cell lines: leukemia cell lines: K562/adr (drug-resistant, chronic myeloid leukemia, CML), NB4 (acute promyelocytic leukemia, AML), Kasumi-1 (acute myeloid leukemia M2 type, AML-M2), Jurkat (acute lymphoblastic leukemia, ALL), all of which are donated by Cancer Research Institute of Zhejiang University, China; and H9 (acute lymphoblastic leukemia, ALL), which is purchased from China Center for Type Culture Collection (CCTCC).
(§2) Reagents: The standard sample of homoharringtonine (HHT) is purchased from Taihua Natural Plant Pharmaceutical Co., Ltd., Shaanxi, China, the homoharringtonine derivatives of the present invention.
(§3) Obtaining 6000 well-growing leukemia cells and inoculating them into wells of a 96-well cell culture plate. The culture medium is the 1640 cell culture medium containing 10% fetal bovine serum. After adding the homoharringtonine derivatives of different concentrations and mixing uniformly, placing the plate in a carbon dioxide cell incubator (5% CO2) at 37° C. and incubated for 72 hours. Then the viable cell concentration is determined by the MTT method. In this experiment, the cell viability in control group (not treated with any compound) is set as 100%. On such basis, the cell viability (%) after treatment and the 50% inhibiting concentration of the compound for the leukemia cell growth at 72 hours (IC50 value of 72 hours) are calculated.

[2] = test system: Jurkat (acute lymphoblastic leukemia, ALL); assay: MTT growth inhibition of leukemia cells, 72 h; format: cell-based, human; conditions: Homo sapiens, Jurkat
Excerpt: as §1, §2, §3

[3] = test system: K562/adr (drug-resistant, chronic myeloid leukemia, CML); assay: MTT growth inhibition of leukemia cells, 72 h; format: cell-based, human; conditions: Homo sapiens, K562/Adr, MTT
Excerpt: as §1, §2, §3

[4] = test system: Kasumi-1 (acute myeloid leukemia M2 type, AML-M2); assay: MTT growth inhibition of leukemia cells, 72 h; format: cell-based, human; conditions: Homo sapiens, Kasumi 1, MTT
Excerpt: as §1, §2, §3

[5] = test system: NB4 (acute promyelocytic leukemia, AML); assay: MTT growth inhibition of leukemia cells, 72 h; format: cell-based, human; conditions: Homo sapiens, MTT
Excerpt: as §1, §2, §3

[6] = test system: RPMI8226 (multiple myeloma); assay: MTT growth inhibition of multiple myeloma cells, 72 h; format: cell-based, human; conditions: Homo sapiens, RPMI-8226, MTT
Protocol: Multiple myeloma and lymphoma cell lines: RPMI8226 (multiple myeloma), purchased from Fuxiang Bio-tech Co. Ltd., Shanghai, China.
as §3

A549 (human lung cancer) = assay: MTT growth inhibition of human solid tumor cells, 72 h; format: cell-based; conditions: Homo sapiens, A549
Protocol: (§4) Human solid tumor cell lines: Hep-2 (laryngeal carcinoma), A549 (human lung cancer), CaES-17 (esophageal cancer cell), PC-3 (prostate cancer), CNE (nasopharyngeal carcinoma cell), and SK-OV-3 (ovarian cancer cell), all of which are purchased from China Center For Type Culture Collection; RKO (human colon adenocarcinoma cell), MGC 803 (human gastric cancer cell), MG63 (osteosarcoma) and U87 MG (malignant glioma cell), all of which are purchased from Fuxiang Bio-tech Co. Ltd., Shanghai, China; PANC-1 (pancreatic cancer), Huh7 (human liver cancer cell), Becap37 (human breast cancer cell), and Hela (human cervical cancer cell), all of which are donated by Cancer Research Institute of Zhejiang University, China.
(§5) Obtaining 4000 well-growing human solid tumor cells and inoculating them into wells of a 96-well cell culture plate. The culture medium is DMEM High Glucose cell culture medium containing 10% fetal bovine serum. The plate is placed in a carbon dioxide cell incubator (5% CO2) at 37° C. and incubated for 24 hours. After adding the homoharringtonine derivatives of different concentration and mixing uniformly, the plate is placed in a carbon dioxide cell incubator (5% CO2) at 37° C. and incubated for 72 hours. Then the viable cell concentration is determined by the MTT method and the cell viability (%) after drug treatment is calculated. In this experiment, the cell viability of control group (not treated with any compound) is set as 100%.

[7] = test system: Becap37 (human breast cancer cell); assay: as above; format: cell-based; conditions: Homo sapiens
Protocol: as §4, §5

[8] = test system: CNE (nasopharyngeal carcinoma cell); assay: as above; format: cell-based; conditions: for IC50 / IC90: Homo sapiens, MTT
Protocol: as §4, §5

[9] = test system: CaES-17 (esophageal cancer cell); assay: as above; format: cell-based; conditions: Homo sapiens, CaEs17
Protocol: as §4, §5

[10] = test system: Hela (human cervical cancer cell); assay: as above; format: cell-based; conditions: Homo sapiens, HeLa, MTT
Protocol: as §4, §5

[11] = test system: Hep-2 (laryngeal carcinoma); assay: as above; format: cell-based; conditions: Homo sapiens, HEp-2
Protocol: as §4, §5

[12] = test system: Huh7 (human liver cancer cell); assay: as above; format: cell-based; conditions: Homo sapiens, Huh-7
Protocol: as §4, §5

MG63 (osteosarcoma) = assay: as above; format: cell-based; conditions: Homo sapiens, MG-63, MTT
Protocol: as §4, §5

[13] = test system: MGC 803 (human gastric cancer cell); assay: as above; format: cell-based; conditions: Homo sapiens, MGC-803
Protocol: as §4, §5

[14] = test system: PANC-1 (pancreatic cancer); assay: as above; format: cell-based; conditions: Homo sapiens, PANC-1, MTT
Protocol: as §4, §5

PC-3 (prostate cancer) = assay: as above; format: cell-based; conditions: Homo sapiens, MTT
Protocol: as §4, §5

[15] = test system: RKO (human colon adenocarcinoma cell); assay: as above; format: cell-based; conditions: Homo sapiens, MTT
Protocol: as §4, §5

[16] = test system: SK-OV-3 (ovarian cancer cell); assay: as above; format: cell-based; conditions: Homo sapiens, SK-OV-3, MTT
Protocol: as §4, §5

[17] = test system: U87 MG (malignant glioma cell); assay: as above; format: cell-based; conditions: Homo sapiens, U-87 MG
Protocol: as §4, §5

Structure (SMILES): COC(=O)C[C@](O)(CCCC(C)(C)OC(=O)C1CCCC1)C(=O)O[C@@H]1C(OC)=C[C@]23CCCN2CCc2cc4c(cc2[C@H]13)OCO4 [BS-HH-077]
- IC50 [1]: 0.01 µg/mL (≈ 0.0156 µM)
- IC90 [1]: 0.03 µg/mL (≈ 0.0467 µM)
- IC50 [2]: 0.001 µg/mL (≈ 0.00156 µM)
- IC90 [2]: 11.4 µg/mL (≈ 17.7 µM)
- IC50 [3]: 0.01 µg/mL (≈ 0.0156 µM)
- IC90 [3]: 0.05 µg/mL (≈ 0.0779 µM)
- IC50 [4]: 0.004 µg/mL (≈ 0.00623 µM)
- IC90 [4]: 0.012 µg/mL (≈ 0.0187 µM)
- IC50 [5]: 0.009 µg/mL (≈ 0.014 µM)
- IC90 [5]: 0.022 µg/mL (≈ 0.0343 µM)
- IC50 [6]: 0.004 µg/mL (≈ 0.00623 µM)
- IC90 [6]: 0.024 µg/mL (≈ 0.0374 µM)
- IC50 (A549 (human lung cancer)): 0.02 µg/mL (≈ 0.0312 µM)
- IC90 (A549 (human lung cancer)): > 16 µg/mL
- IC50 [7]: 0.007 µg/mL (≈ 0.0109 µM)
- IC90 [7]: 11.1 µg/mL (≈ 17.3 µM)
- IC50 [8]: 0.012 µg/mL (≈ 0.0187 µM)
- IC90 [8]: > 16 µg/mL
- anti-CNE effect relative to homoharringtonine ([8]; vs HHT): more than 3 fold
- IC50 [9]: 0.031 µg/mL (≈ 0.0483 µM)
- IC90 [9]: 16 µg/mL (≈ 24.9 µM)
- IC50 [10]: 0.014 µg/mL (≈ 0.0218 µM)
- IC90 [10]: 16 µg/mL (≈ 24.9 µM)
- IC50 [11]: 0.007 µg/mL (≈ 0.0109 µM)
- IC90 [11]: > 16 µg/mL
- IC50 [12]: 0.016 µg/mL (≈ 0.0249 µM)
- IC90 [12]: 0.36 µg/mL (≈ 0.561 µM)
- IC50 (MG63 (osteosarcoma)): 0.021 µg/mL (≈ 0.0327 µM)
- IC90 (MG63 (osteosarcoma)): 5.14 µg/mL (≈ 8.01 µM)
- IC50 [13]: 0.021 µg/mL (≈ 0.0327 µM)
- IC90 [13]: 0.087 µg/mL (≈ 0.136 µM)
- IC50 [14]: 0.055 µg/mL (≈ 0.0857 µM)
- IC90 [14]: > 16 µg/mL
- IC50 (PC-3 (prostate cancer)): 0.039 µg/mL (≈ 0.0608 µM)
- IC90 (PC-3 (prostate cancer)): > 16 µg/mL
- IC50 [15]: 0.006 µg/mL (≈ 0.00935 µM)
- IC90 [15]: 0.02 µg/mL (≈ 0.0312 µM)
- IC50 [16]: 0.034 µg/mL (≈ 0.053 µM)
- IC90 [16]: > 16 µg/mL
- IC50 [17]: 0.035 µg/mL (≈ 0.0545 µM)
- IC90 [17]: 0.16 µg/mL (≈ 0.249 µM)

Structure (SMILES): COC(=O)C[C@@](CCCC(C)(C)OC(=O)c1cccs1)(OC(=O)c1cccs1)C(=O)O[C@@H]1C(OC)=C[C@]23CCCN2CCc2cc4c(cc2[C@H]13)OCO4 [BS-HH-0572]
- IC50 [1]: 0.21 µg/mL (≈ 0.274 µM)
- IC90 [1]: 0.48 µg/mL (≈ 0.627 µM)
- IC50 [2]: 0.11 µg/mL (≈ 0.144 µM)
- IC90 [2]: 7.5 µg/mL (≈ 9.79 µM)
- IC50 [3]: 0.32 µg/mL (≈ 0.418 µM)
- IC90 [3]: 16 µg/mL (≈ 20.9 µM)
- IC50 [4]: 0.065 µg/mL (≈ 0.0849 µM)
- IC90 [4]: 0.4 µg/mL (≈ 0.522 µM)
- IC50 [5]: 0.12 µg/mL (≈ 0.157 µM)
- IC90 [5]: 0.4 µg/mL (≈ 0.522 µM)
- IC50 [6]: 0.155 µg/mL (≈ 0.202 µM)
- IC90 [6]: 1.13 µg/mL (≈ 1.48 µM)
- IC50 (A549 (human lung cancer)): 0.48 µg/mL (≈ 0.627 µM)
- IC90 (A549 (human lung cancer)): > 16 µg/mL
- IC50 [7]: 0.2 µg/mL (≈ 0.261 µM)
- IC90 [7]: 9.75 µg/mL (≈ 12.7 µM)
- IC50 [8]: 0.35 µg/mL (≈ 0.457 µM)
- IC90 [8]: 14.3 µg/mL (≈ 18.6 µM)
- IC50 [9]: 0.74 µg/mL (≈ 0.966 µM)
- IC90 [9]: 16 µg/mL (≈ 20.9 µM)
- IC50 [10]: 0.45 µg/mL (≈ 0.588 µM)
- IC90 [10]: 11.5 µg/mL (≈ 15.1 µM)
- IC50 [11]: 0.23 µg/mL (≈ 0.3 µM)
- IC90 [11]: > 16 µg/mL
- IC50 [12]: 0.17 µg/mL (≈ 0.222 µM)
- IC90 [12]: 1.7 µg/mL (≈ 2.22 µM)
- IC50 (MG63 (osteosarcoma)): 0.2 µg/mL (≈ 0.261 µM)
- IC90 (MG63 (osteosarcoma)): 4.75 µg/mL (≈ 6.2 µM)
- IC50 [13]: 0.24 µg/mL (≈ 0.313 µM)
- IC90 [13]: 1.62 µg/mL (≈ 2.12 µM)
- IC50 [14]: 0.43 µg/mL (≈ 0.561 µM)
- IC90 [14]: 12.6 µg/mL (≈ 16.4 µM)
- IC50 (PC-3 (prostate cancer)): 1.84 µg/mL (≈ 2.4 µM)
- IC90 (PC-3 (prostate cancer)): > 16 µg/mL
- IC50 [15]: 0.12 µg/mL (≈ 0.157 µM)
- IC90 [15]: 0.56 µg/mL (≈ 0.731 µM)
- IC50 [16]: 0.98 µg/mL (≈ 1.28 µM)
- IC90 [16]: > 16 µg/mL
- IC50 [17]: 0.23 µg/mL (≈ 0.3 µM)
- IC90 [17]: 0.99 µg/mL (≈ 1.29 µM)

Reference: patent publication US9428519B2, “Acylated derivative of homoharringtonine, preparation method therefor, and application thereof” (HANGZHOU BENSHENG PHARMACEUTICAL CO., LTD., priority 2011, dated 2016)
